Source: US8785470B2, “Heterocyclic compounds and uses thereof” (Infinity Pharmaceuticals, Inc., priority 2011, dated 2014)
Where two headings read alike, the source gives them in different places.

Tests used:
PI3Kα = molecular target: T1, PI3Kα (Homo sapiens, UniProt P42336); assay: PI3-Kinase HTRF assay, PI3Kα; type: biochemical; conditions: 10 μM ATP, PIP2 at 10 μM, read-out: IC50 P13Kα
T1 construct: purchased Millipore Corporation 14-602-K
Method in brief: (§1)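 Purified recombinant human PI3Kα, β, γ or δ (0.25-0.3 μg/ml) preincubated 15 min at room temperature with compound (2% DMSO) and 10 μM PIP2, then reacted 1 h with 10 μM ATP. PIP3 product detected by competitive HTRF (GST-PH domain/biotin-PIP3); IC50 from 12-point curves, 20 μM to 0.1 nM, by nonlinear regression.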

Balb/c splenic B cells = assay: B cell activation and proliferation assay; type: cell-based; conditions: Mus musculus, column bins 1 μM to 100 nM (given as 100-1000) and Less than 100 nM, read-out: B cell proliferation EC50
Method in brief: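 Balb/c splenic B cells were isolated by Ficoll gradient and magnetic separation, plated at 50.000 cells/well in RPMI/10% FBS, and pre-incubated with compound for 30 min at 37° C (0.2% DMSO). Cells were stimulated for 72 h with a cocktail of 10 μg/ml LPS or 5 μg/ml anti-mouse IgM F(ab′)2 plus 2 ng/ml IL4. Alamar Blue fluorescence (560Ex/590Em) after 5 h gave IC50 or EC50.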

[1] = system: phospho-AKT in RAJI cells (PI3Kδ); assay: PI3Kδ selective assay, phospho-AKT in RAJI cells; type: cell-based; conditions: RAJI cells stimulated with anti-human IgM; read-out: IC50 for phospho-AKT, RAJI cell model
Method in brief: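 Serum-starved RAJI B-lymphoma cells stimulated with anti-human IgM to trigger B-cell receptor signaling; compound effect read as reduction of phospho-AKT, for example detected with phospho-AKT antibodies.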

[2] = system: phospho-AKT in RAW 264.7 cells (PI3Kγ); assay: PI3Kγ selective assay, phospho-AKT in RAW 264.7 cells; type: cell-based; conditions: Mus musculus, RAW264.7, stimulated with C5a, read-out: IC50 for phospho-AKT, RAW 264.7 cell model
Method in brief: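 Serum-starved RAW 264.7 macrophages are stimulated with the GPCR agonist C5a and treated with compound before, with or after stimulation. Inhibition is read as reduced C5a-induced phospho-AKT, detected for example with phospho-AKT antibodies.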

[3] = system: phospho-AKT in SKOV-3 cells (PI3Kα); assay: PI3Kα selective assay, phospho-AKT in SKOV-3 cells; type: cell-based; conditions: Homo sapiens, SK-OV-3, read-out: IC50 for phospho-AKT, SKOV-3 cell model
Description: A compound's ability in selectively inhibiting PI3Kα can be assessed using SKOV-3 cells, i.e., human ovarian carcinoma cell line. Briefly, SKOV-3 cells, in which mutant PI3Kα is constitutively active, can be treated with test compounds. Test compounds' ability to inhibit AKT phosphorylation in SKOV-3 cells, therefore, is indicative of selective inhibition of PI3Kα. Thus, by monitoring the reduction of phospho-AKT in SKOV-3 cells (using for example, phospho-AKT antibodies), a compound's potential efficacy in selectively inhibiting PI3Kα can be assessed.
Certain compounds provided herein (e.g., Compounds 5, 49, 138, 326, 328, 354, 359, 389, and 391) were tested in SKOV-3 cell model using procedures as described above.

[4] = system: phospho-AKT in 786-O cells (PI3Kβ); assay: PI3Kβ selective assay, phospho-AKT in 786-O cells; type: cell-based; conditions: Homo sapiens, 786-0, read-out: IC50 for phospho-AKT, 786-O cell model
Description: A compound's ability in selectively inhibiting PI3Kβ can be assessed using 786-O cells, i.e., human kidney carcinoma cell line. Briefly, 786-O cells, in which PI3Kβ is constitutively active, can be treated with test compounds. Test compounds' ability to inhibit AKT phosphorylation in 786-O cells, therefore, is indicative of selective inhibition of PI3β. Thus, by monitoring the reduction of phospho-AKT in 786-O cells (using for example, phospho-AKT antibodies), a compound's potential efficacy in selectively inhibiting PI3Kβ can be assessed.
Certain compounds provided herein (e.g., Compounds 5, 49, 138, 326, 328, 354, 359, 389, and 391) were tested in 786-O cell model using procedures as described above.

PI3Kβ = molecular target: T2, PI3Kβ (Homo sapiens, UniProt P42338); assay: PI3-Kinase HTRF assay, PI3Kβ; type: biochemical; conditions: bins Greater than 10 μM and Greater than 1 μM to 10 μM; 10 μM ATP, PIP2 at 10 μM
T2 construct: purchased Millipore Corporation 14-603-K
T2 sequence (P42338 whole entry): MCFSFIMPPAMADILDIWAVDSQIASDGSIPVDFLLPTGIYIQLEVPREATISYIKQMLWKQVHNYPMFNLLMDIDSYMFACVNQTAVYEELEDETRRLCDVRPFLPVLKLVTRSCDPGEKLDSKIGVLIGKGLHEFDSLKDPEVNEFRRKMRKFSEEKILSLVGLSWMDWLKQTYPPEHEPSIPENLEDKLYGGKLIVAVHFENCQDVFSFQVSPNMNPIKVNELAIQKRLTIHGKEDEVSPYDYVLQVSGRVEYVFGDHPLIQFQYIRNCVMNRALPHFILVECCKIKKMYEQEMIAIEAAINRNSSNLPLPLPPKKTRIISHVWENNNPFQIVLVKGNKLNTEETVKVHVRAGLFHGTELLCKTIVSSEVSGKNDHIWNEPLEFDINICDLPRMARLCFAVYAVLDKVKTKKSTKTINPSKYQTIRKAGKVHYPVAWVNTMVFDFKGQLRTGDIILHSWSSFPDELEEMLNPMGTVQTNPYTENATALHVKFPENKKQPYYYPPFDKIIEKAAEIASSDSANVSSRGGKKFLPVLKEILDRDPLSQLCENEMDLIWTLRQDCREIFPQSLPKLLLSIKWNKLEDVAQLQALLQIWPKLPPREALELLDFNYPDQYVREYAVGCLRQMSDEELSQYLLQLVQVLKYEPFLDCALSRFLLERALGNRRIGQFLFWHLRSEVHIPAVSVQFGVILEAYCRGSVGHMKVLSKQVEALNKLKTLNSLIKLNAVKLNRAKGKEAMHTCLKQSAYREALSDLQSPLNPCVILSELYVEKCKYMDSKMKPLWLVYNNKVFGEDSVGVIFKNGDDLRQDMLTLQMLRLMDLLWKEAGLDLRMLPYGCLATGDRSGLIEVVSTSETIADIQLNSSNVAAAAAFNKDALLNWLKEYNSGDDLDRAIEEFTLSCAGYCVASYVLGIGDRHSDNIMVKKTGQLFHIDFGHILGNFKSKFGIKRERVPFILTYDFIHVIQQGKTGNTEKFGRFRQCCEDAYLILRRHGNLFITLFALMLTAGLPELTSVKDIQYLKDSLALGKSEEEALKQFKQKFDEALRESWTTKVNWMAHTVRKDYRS
T2 sequence (P27986 whole entry partner): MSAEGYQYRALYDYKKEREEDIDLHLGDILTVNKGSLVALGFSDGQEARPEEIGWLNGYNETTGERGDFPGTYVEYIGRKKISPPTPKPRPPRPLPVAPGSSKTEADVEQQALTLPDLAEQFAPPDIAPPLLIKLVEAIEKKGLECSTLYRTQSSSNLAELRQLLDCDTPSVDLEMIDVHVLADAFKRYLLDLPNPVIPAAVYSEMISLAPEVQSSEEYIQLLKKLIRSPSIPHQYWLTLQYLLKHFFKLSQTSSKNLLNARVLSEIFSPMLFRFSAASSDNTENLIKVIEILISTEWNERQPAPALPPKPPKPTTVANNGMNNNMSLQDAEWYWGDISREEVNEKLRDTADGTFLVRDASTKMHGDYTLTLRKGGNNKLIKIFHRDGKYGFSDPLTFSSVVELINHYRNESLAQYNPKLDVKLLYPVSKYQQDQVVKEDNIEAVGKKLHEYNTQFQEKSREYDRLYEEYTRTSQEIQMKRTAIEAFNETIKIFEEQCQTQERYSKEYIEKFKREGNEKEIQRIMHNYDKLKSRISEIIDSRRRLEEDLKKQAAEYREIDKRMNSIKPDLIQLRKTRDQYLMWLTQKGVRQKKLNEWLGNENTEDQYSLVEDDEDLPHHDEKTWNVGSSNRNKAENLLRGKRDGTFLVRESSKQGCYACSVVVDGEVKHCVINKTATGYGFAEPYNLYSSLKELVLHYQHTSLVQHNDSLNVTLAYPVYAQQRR
Method in brief: as §1

PI3Kδ = molecular target: T3, PI3Kδ (Homo sapiens, UniProt O00329); assay: PI3-Kinase HTRF assay, PI3Kδ; type: biochemical; conditions: 10 μM ATP, PIP2 at 10 μM
T3 construct: purchased Millipore Corporation 14-604-K
T3 sequence (O00329 whole entry): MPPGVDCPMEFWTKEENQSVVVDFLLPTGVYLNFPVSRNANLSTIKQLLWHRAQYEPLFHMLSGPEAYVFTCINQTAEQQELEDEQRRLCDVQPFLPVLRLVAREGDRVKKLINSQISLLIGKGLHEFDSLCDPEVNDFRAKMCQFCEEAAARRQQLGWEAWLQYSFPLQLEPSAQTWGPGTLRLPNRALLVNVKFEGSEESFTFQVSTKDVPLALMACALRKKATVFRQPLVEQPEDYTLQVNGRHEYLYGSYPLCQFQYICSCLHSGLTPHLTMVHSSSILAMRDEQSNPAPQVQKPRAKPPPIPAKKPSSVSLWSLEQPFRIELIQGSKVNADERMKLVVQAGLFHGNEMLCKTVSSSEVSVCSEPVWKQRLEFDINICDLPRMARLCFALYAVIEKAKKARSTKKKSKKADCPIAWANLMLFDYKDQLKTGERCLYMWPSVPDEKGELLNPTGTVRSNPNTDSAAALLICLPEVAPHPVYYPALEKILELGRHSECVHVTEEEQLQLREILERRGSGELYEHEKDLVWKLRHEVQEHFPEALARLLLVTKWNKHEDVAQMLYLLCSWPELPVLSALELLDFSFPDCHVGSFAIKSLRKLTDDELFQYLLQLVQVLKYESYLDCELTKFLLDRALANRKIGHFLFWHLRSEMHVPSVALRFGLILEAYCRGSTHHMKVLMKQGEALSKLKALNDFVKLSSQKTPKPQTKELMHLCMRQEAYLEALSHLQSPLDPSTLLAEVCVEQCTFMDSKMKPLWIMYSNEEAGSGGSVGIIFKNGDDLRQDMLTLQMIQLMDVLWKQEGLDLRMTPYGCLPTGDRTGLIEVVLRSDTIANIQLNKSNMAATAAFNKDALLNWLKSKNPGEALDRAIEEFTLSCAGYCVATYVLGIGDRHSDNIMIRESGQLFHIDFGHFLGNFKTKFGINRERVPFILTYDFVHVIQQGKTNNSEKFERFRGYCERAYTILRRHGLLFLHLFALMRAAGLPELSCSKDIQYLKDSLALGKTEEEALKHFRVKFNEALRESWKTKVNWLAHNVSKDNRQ
T3 sequence (P27986 whole entry partner): as the sequence (P27986 whole entry partner) above
Description: (§2) A PI3-Kinase HTRF® assay kit (cat No. 33-016) purchased from Millipore Corporation was used to screen compounds provided herein. This assay used specific, high affinity binding of the GRPI pleckstrin homology (PH) domain to PIP3, the product of a Class 1A or 1B PI3 Kinase acting on its physiological substrate PIP2. During the detection phase of the assay, a complex was generated between the GST-tagged PH domain and biotinylated short chain PIP3. The biotinylated PIP3 and the GST-tagged PH domain recruited fluorophores (Streptavidin-Allophycocyanin and Europium-labeled anti-GST respectively) to form the fluorescence resonance energy transfer (FRET) architecture, generating a stable time-resolved FRET signal. The FRET complex was disrupted in a competitive manner by non-biotinylated PIP3, a product formed in the PI3 Kinase assay.
(§3) PI3 Kinase α, β, γ and δ activity was assayed using the PI3 Kinase HTRF® assay kit (catalogue No. 33-016) purchased from Millipore Corporation. Purified recombinant PI3Kα (catalogue No. 14-602-K), PI3Kβ (catalogue No. 14-603-K), PI3Kγ (catalogue No. 14-558-K) and PI3Kδ (catalogue No. 14-604-K) were obtained from Millipore Corporation. Purified recombinant PI3K enzyme was used to catalyze the phosphorylation of phosphatidylinositol 4,5-bisphosphate (PIP2 at 10 μM) to phosphatidylinositol 3,4,5-trisphosphate (PIP3) in the presence of 10 μM ATP. The assay was carried out in 384-well format and detected using a Perkin Elmer EnVision Xcite Multilabel Reader. Emission ratios were converted into percent inhibitions and imported into GraphPad Prism software. The concentration necessary to achieve inhibition of enzyme activity by 50% (IC50) was calculated using concentrations ranging from 20 μM to 0.1 nM (12-point curve). IC50 values were determined using a nonlinear regression model available in GraphPad Prism 5. […]

PI3Kγ = molecular target: T4, PI3Kγ (Homo sapiens, UniProt P48736); assay: PI3-Kinase HTRF assay, PI3Kγ; type: biochemical; conditions: 10 μM ATP, PIP2 at 10 μM
T4 construct: purchased Millipore Corporation 14-558-K
T4 sequence (P48736 whole entry): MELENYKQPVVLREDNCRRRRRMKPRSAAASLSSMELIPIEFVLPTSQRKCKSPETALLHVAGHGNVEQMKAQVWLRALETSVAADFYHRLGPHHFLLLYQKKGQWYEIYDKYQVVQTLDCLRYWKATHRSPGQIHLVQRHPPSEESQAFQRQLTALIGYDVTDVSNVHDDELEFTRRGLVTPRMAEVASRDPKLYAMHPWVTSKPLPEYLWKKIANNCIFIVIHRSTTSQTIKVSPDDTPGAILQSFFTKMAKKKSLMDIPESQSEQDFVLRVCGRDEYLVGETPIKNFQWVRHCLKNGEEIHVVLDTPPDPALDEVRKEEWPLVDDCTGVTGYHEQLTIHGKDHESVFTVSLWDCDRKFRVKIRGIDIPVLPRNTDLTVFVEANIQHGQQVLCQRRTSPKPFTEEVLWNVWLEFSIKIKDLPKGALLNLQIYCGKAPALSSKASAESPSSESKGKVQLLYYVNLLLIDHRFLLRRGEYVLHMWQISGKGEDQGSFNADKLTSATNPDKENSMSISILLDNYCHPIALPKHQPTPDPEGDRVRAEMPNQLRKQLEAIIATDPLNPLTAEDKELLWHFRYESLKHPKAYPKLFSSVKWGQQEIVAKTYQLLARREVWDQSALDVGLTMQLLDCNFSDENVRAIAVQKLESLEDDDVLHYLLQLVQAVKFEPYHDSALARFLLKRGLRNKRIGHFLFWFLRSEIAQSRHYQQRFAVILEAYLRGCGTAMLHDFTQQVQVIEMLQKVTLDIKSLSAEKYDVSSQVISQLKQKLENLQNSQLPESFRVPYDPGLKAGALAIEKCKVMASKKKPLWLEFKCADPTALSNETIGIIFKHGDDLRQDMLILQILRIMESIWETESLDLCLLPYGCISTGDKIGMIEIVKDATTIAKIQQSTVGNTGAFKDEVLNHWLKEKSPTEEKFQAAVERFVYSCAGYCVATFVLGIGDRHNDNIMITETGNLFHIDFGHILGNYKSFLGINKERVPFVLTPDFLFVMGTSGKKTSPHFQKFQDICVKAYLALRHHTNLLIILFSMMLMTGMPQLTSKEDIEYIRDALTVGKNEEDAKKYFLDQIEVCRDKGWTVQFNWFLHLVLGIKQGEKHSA
Description: as §2, §3

[5] = PBS at pH 7.4, 37° C., 24 hours; cited from earlier work
[6] = control or reference compounds, 5 μM; cited from earlier work
[7] = bins Greater than 10 μM and Greater than 1 μM to 10 μM
[8] = ranges less than 100 nM and between 100 nM and 1 μM (given as 100-1000)
[9] = ranges between 1 μM and 10 μM and greater than 10 μM
[10] = column bins 1 μM to 100 nM (given as 100-1000) and Less than 100 nM
[11] = range between 100 nM and 1 μM (given as 100-1000)

T1 sequence (P42336 whole entry): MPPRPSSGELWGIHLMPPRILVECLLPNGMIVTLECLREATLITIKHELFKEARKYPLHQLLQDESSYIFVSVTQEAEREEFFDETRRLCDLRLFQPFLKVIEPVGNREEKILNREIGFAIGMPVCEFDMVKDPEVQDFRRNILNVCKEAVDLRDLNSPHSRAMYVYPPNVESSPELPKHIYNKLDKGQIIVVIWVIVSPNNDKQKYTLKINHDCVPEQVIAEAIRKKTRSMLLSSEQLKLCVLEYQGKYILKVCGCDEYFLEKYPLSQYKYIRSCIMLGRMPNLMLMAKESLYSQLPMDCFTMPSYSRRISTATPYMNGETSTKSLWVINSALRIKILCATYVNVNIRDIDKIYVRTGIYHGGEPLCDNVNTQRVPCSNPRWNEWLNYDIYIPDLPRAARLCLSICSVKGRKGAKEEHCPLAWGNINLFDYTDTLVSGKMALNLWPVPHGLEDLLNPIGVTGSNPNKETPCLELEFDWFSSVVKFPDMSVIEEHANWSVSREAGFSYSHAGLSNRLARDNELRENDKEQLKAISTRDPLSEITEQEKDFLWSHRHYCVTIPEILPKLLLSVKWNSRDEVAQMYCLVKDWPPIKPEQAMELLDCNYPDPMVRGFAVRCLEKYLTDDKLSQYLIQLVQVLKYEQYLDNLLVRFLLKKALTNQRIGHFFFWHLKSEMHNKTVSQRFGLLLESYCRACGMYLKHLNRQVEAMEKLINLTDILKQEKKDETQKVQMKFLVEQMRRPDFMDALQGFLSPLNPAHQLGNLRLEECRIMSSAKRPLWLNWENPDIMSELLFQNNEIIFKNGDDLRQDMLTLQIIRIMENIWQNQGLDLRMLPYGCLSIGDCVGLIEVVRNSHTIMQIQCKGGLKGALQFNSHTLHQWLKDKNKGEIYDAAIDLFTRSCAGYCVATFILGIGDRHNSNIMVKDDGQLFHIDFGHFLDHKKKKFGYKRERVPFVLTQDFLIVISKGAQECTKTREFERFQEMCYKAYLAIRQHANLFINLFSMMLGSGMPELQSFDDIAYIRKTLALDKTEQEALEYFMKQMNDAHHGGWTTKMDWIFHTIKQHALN
T1 sequence (P27986 whole entry partner): as the sequence (P27986 whole entry partner) above

SMILES | IC50 (PI3Kα; [7]) [nM] | EC50 (Balb/c splenic B cells) [nM] | IC50 [1] [nM] | IC50 [2, 8] [nM] | IC50 [3, 9] [nM] | IC50 [4, 9] [nM] | IC50 (PI3Kβ) [µM] | other results
COc1ncc(-c2cccc3cc([C@H](C)Nc4nc(N)ncc4C#N)n(-c4ccccc4)c(=O)c23)cn1 [Compound 5, (S)-2-amino-4-((1-(8-(2-methoxypyrimidin-5-yl)-1-oxo-2-phenyl-1,2-dihydroisoquinolin-3-yl)ethyl)amino)pyrimidine-5-carbonitrile] | 1000 to 10000 | < 100 | < 100 | < 100 | 1000 to 10000 | > 10000 | – | –
COc1cc(-c2cccc3cc([C@H](C)Nc4nc(N)ncc4C#N)n(-c4ccccc4)c(=O)c23)ccn1 [Compound 49] | – | < 100 | < 100 | < 100 | 1000 to 10000 | 1000 to 10000 | 1 to 10 | –
CCc1ncc(-c2cccc3nc([C@H](C)Nc4nc(N)ncc4C#N)n(-c4ccccc4)c(=O)c23)cn1 [Compound 60] | > 10000 | < 100 | – | – | – | – | > 10 | IC50 (PI3Kδ; [10]): < 100 nM; IC50 (PI3Kγ; [10]): < 100 nM
CCOc1cncc(-c2cccc3cc([C@H](C)Nc4nc(N)ncc4C#N)n(-c4ccccc4)c(=O)c23)c1 [Compound 115] | – | < 100 | – | – | – | – | 1 to 10 | IC50 (PI3Kδ; [10]): < 100 nM; IC50 (PI3Kγ; [10]): < 100 nM; IC50 (PI3Kα; [10]): 100 to 1000 nM
CCOc1nc(-c2cnc(N)nc2N[C@@H](C)c2cc3cccc(-c4ccc(=O)n(C)c4)c3c(=O)n2-c2ccccc2)cs1 [Compound 138] | 1000 to 10000 | – | < 100 | < 100 | – | 1000 to 10000 | 1 to 10 | IC50 [3, 11]: 100 to 1000 nM
C[C@H](Nc1nc(N)ncc1C#N)c1cc2cccc(-c3cccc(N(C)S(C)(=O)=O)c3)c2c(=O)n1-c1ccccc1 [Compound 153] | – | < 100 | – | – | – | – | 1 to 10 | IC50 (PI3Kδ; [10]): < 100 nM; IC50 (PI3Kγ; [10]): < 100 nM; IC50 (PI3Kα; [10]): 100 to 1000 nM
CC(C)n1c([C@H](C)Nc2nc(N)ncc2C#N)cc2cccc(-c3ccc(=O)n(C)c3)c2c1=O [Compound 326] | 1000 to 10000 | – | < 100 | 100 to 1000 | 1000 to 10000 | – | 1 to 10 | IC50 [4, 11]: 100 to 1000 nM
Cc1ncc(-c2cccc3cc([C@H](C)Nc4nc(N)ncc4C#N)n(C(C)C)c(=O)c23)cn1 [Compound 328] | – | – | < 100 | 100 to 1000 | – | 1000 to 10000 | – | IC50 (PI3Kγ; [7]): 1000 to 10000 nM; IC50 [3, 11]: 100 to 1000 nM
C[C@H](Nc1nc(N)ncc1C#N)c1cc2cccc(Cl)c2c(C(=O)NC2CCOCC2)n1 [Compound 354] | – | – | < 100 | – | > 10000 | 1000 to 10000 | – | IC50 (PI3Kδ; [7]): 1000 to 10000 nM; IC50 ([2]; range between 1 μM and 10 μM): 1000 to 10000 nM
CC(C)n1c([C@H](C)Nc2ncnc(N)c2C#N)cc2cccc(-c3ccc(=O)n(C)c3)c2c1=O [Compound 359] | 1000 to 10000 | – | < 100 | – | 1000 to 10000 | – | 1 to 10 | IC50 ([2]; range between 1 μM and 10 μM): 1000 to 10000 nM; IC50 [4, 11]: 100 to 1000 nM
COc1ncc(-c2cccc3cc([C@H](C)Nc4nc(N)ncc4-c4cncs4)n(-c4ccccc4)c(=O)c23)cn1 [Compound 389] | 1000 to 10000 | – | < 100 | 100 to 1000 | 1000 to 10000 | 1000 to 10000 | 1 to 10 | –
COc1nc(-c2cnc(N)nc2N[C@@H](C)c2cc3cccc(-c4ccc(=O)n(C)c4)c3c(=O)n2-c2ccccc2)cs1 [Compound 391] | – | – | < 100 | 100 to 1000 | > 10000 | > 10000 | – | –
C[C@H](Nc1nc(N)ncc1C(=O)C1CC1)c1cc2cccc(Cl)c2c(=O)n1-c1ccccc1 [Compound 425] | 1000 to 10000 | – | < 100 | 100 to 1000 | – | – | – | IC50 (PI3Kδ; [7]): 1000 to 10000 nM; IC50 (PI3Kγ; [7]): 1000 to 10000 nM
O=C(O)CCCc1ccc(N(CCCl)CCCl)cc1 [chlorambucil] | – | – | – | – | – | – | – | chemical stability [5]: largely hydrolyzed
CC(C)[N+](C)(CCOC(=O)C1c2ccccc2Oc2ccccc21)C(C)C [propantheline] | – | – | – | – | – | – | – | plasma stability [6]: intermediate plasma stability
CCCOc1cc(N)ccc1C(=O)OCCN(CC)CC [propoxycaine] | – | – | – | – | – | – | – | plasma stability [6]: low plasma stability
